{
  "source": "patent US20080118990A1",
  "about": "“Assay For Lipoproteins Using Lumiphore K-37” (Science and Technology Facilities Council, priority 2004, published 2008)",
  "key": {"LDL [1]": {"tested_on": "LDL", "assay": "K-37 fluorescence in LDL with and without octanoate (Example 2)", "type": "binding", "description": "The dye K-37 was added at a concentration of 0.5 mM to LDL at a total lipid concentration of 5 mM, in the presence and absence of 50 mg/ml HSA. Measurements were made with and without the addition of 0.1 M sodium octanoate, which acted as a ligand binding inhibitor."}, "[2]": {"target": "T1, Human Serum Albumin (HSA) (Homo sapiens, UniProt P02768)", "T1 sequence (P02768 25-609)": "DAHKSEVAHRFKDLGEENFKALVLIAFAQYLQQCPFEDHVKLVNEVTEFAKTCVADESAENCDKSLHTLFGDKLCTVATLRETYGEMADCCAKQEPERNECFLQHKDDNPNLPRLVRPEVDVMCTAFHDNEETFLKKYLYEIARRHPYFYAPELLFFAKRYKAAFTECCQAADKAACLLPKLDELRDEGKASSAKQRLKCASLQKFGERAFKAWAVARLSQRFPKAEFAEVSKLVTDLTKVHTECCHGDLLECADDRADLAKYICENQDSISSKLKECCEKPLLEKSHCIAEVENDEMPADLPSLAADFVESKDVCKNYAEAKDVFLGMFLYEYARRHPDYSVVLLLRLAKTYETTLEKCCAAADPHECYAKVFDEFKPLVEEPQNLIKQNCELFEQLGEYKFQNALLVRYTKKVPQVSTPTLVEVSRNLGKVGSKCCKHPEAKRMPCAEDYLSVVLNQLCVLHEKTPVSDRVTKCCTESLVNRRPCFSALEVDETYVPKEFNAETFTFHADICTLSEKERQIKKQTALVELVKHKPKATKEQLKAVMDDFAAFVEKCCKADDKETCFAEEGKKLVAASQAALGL", "assay": "K-37 fluorescence with HSA with and without octanoate, blocking of HSA (Example 2)"}, "[3]": {"target": "T1, Human Serum Albumin (HSA)", "assay": "Nile Red fluorescence with HSA with and without octanoate (Example 3)", "type": "binding"}, "HDL": {"tested_on": "HDL", "assay": "Nile Red fluorescence in HDL compared with VLDL and LDL at different excitation wavelengths (Example 6)", "set-up": "species or system human", "description": "Further optimisation of the assay according to the invention Further tests were performed on human serum samples to investigate optimum excitation wavelengths for inducing fluorescence indicative of HDL levels according to the method of the invention.\nThe inventors tested a number of wavelengths and have established that, when using Nile Red, that an excitation wavelength of 600 nm and an emission wavelength of 620 nm gives optimal results (see FIG. 15). The inventors were surprised that this excitation wavelength was optimal because it is to the very long wavelength edge of the spectrum.\nFor certain samples the inventors observed a noisier plot with an excitation wavelength of 460 nm and an emission wavelength of 620 nm (see FIG. 16).\nThe inventors believe that Nile Red is about 5 times more fluorescent in HDL than VLDL and LDL when excited at 600 nm as opposed to excitation at 460 nm where it is only about 2 times more fluorescent. This gives a better signal to noise when subtracting from the standard curve of LDL plus VLDL."}, "LDL [4]": {"tested_on": "LDL", "assay": "Nile Red fluorescence in LDL with and without octanoate (Example 3)", "type": "binding"}, "[5]": {"target": "drug binding domain of HSA (Homo sapiens, UniProt P02768)", "sequence (P02768 25-609)": "as above", "assay": "Displacement of Nile Red from HSA by agents that block the drug binding domain (Example 6)", "conditions": "agent at about 5 mM, without affecting the lipoprotein fluorescence", "from_the_text": "(§1) This lead the inventors to realise that the HDL/Nile red assay may be improved further by using an additional blocker. They tried agents that block the drug binding domain of HSA. […] The benzoic acid has the added bonus of quenching the Nile Red residual fluorescence in solution by about 20%."}, "[6]": {"assay": "Quenching of Nile Red residual fluorescence in solution (Example 6)", "type": "physicochemical", "from_the_text": "as §1"}},
  "data": [
    {"compound": "CN(C)c1ccc(/C=C/C(=O)c2ccc(S(=O)(=O)C(F)F)cc2)cc1", "note": "[K-37, 4-dimethylamino-4′-difluoromethyl-sulphonyl-benzylidene-acetophenone]", "values": [
      {"measurement": "Fluorescence Intensity", "setting": "LDL [1]; 0.5 mM K-37 plus 5 mM LDL + 0.1 M sodium octanoate", "value": 209700, "unit": "units"},
      {"measurement": "Fluorescence Intensity", "setting": "LDL [1]; 0.5 mM K-37 plus 5 mM LDL, no octanoate", "value": 213500, "unit": "units"},
      {"measurement": "Fluorescence Intensity", "setting": "[2]; 0.5 mM K-37 plus 50 mg/ml HSA + 0.1 M sodium octanoate", "value": 3600, "unit": "units"},
      {"measurement": "Fluorescence Intensity", "setting": "[2]; 0.5 mM K-37 plus 50 mg/ml HSA, no octanoate", "value": 79300, "unit": "units"}
    ]},
    {"compound": "CCN(CC)c1ccc2nc3c4ccccc4c(=O)cc-3oc2c1", "note": "[Nile Red]", "values": [
      {"measurement": "Fluorescence Intensity", "setting": "[3]; 0.5 mM Nile Red plus 50 mg/ml HSA + 50 mM octanoate", "value": 9.118, "unit": "units"},
      {"measurement": "Fluorescence Intensity", "setting": "[3]; 0.5 mM Nile Red plus 50 mg/ml HSA, no octanoate", "value": 58.905, "unit": "units"},
      {"measurement": "times more fluorescent in HDL than VLDL and LDL", "setting": "HDL; excitation at 460 nm", "value": "about 2 times"},
      {"measurement": "times more fluorescent in HDL than VLDL and LDL", "setting": "HDL; excited at 600 nm", "value": "about 5 times"},
      {"measurement": "Fluorescence Intensity", "setting": "LDL [4]; 0.5 mM Nile Red plus 5 mM LDL + 50 mM octanoate", "value": 183.786, "unit": "units"},
      {"measurement": "Fluorescence Intensity", "setting": "LDL [4]; 0.5 mM Nile Red plus 5 mM LDL, no octanoate", "value": 187.532, "unit": "units"}
    ]},
    {"compound": "O=C(O)c1ccccc1", "note": "[benzoic acid]", "values": [
      {"measurement": "displacement of Nile Red from HSA", "setting": "[5]", "value": "worked to displace the Nile Red from HSA"},
      {"measurement": "quenching of Nile Red residual fluorescence in solution", "setting": "[6]", "value": "about 20%"}
    ]},
    {"compound": "CCCCCCCC(=O)[O-].[Na+]", "note": "[octanoate, sodium octanoate]", "values": [
      {"measurement": "effect of octanoate on K-37 fluorescence in LDL", "setting": "LDL [1]; 0.1 M sodium octanoate, 5 mM LDL, 0.5 mM K-37", "value": "little effect"},
      {"measurement": "effect of octanoate on Nile Red fluorescence in LDL", "setting": "LDL [4]; 50 mM octanoate, 5 mM LDL, 0.5 mM Nile Red", "value": "little effect"}
    ]}
  ]
}
